Experimental data published in patent publication US10934274B2, “Quinoline derivatives as TAM RTK inhibitors” (Qurient Co., Ltd., priority 2015, dated 2021).

Key:
[1] = target: T1, Met (Homo sapiens, UniProt P08581); assay: LanthaScreen Eu kinase binding assay, Met; conditions: Tracer 236, read-out: cMet kinase binding activity (Kd)
T1 construct: purchased Life Technologies
Protocol: (§1) LanthaScreen® Eu Kinase Binding assays were conducted at Life Technologies using the manufacturer's specifications for each kinase indicated.
(§2) Briefly, the principle behind this assay is based upon the binding and displacement of an Alexa Fluor 647-labeled tracer to the kinase of interest. Binding of the tracer to the kinase is detected using an EU-labeled anti-tag antibody. Simultaneous binding of both the tracer and antibody to the kinase gives rise to a FRET-signal. Binding of an inhibitor to the kinase competes for binding with the tracer, resulting in a loss of FRET-signal.
(§3) Binding Assay Protocol for AXL, Mer, Tyro3 and Met
(§4) A given compound was diluted in DMSO to make a stock compound solution. The stock compound solution was serially diluted over eight steps in DMSO. Each diluted compound solution in DMSO was diluted in kinase buffer. Afterwards four kinds of working solution were prepared. First, Tracer-Working solution consists of Tracer 236 and Kinase Buffer. Second, Axl, Mer, Tyro3 or Met/anti-GST-AB-Working solution contained one of the kinases Axl, Mer, Tyro3, Met or anti-GST-AB (=anti glutathione-S-transferase antibody) in Kinase Buffer. Third, anti-GST-AB-Working solution was made with anti-GST-AB and Kinase Buffer. Last, in the DMSO-Working solution DMSO was added to Kinase Buffer to a final concentration to 3%. Each of the four kinds of working solutions were separately added to the assay plate and then incubated for 1 h at room temperature. After incubation, the assay plate was measured with respect to the FRET-Signal with the EnVision (Perkin Elmer) using the program LanthaHTRF-Assay. Data evaluation was done in the Quattro Workflow software.
(§5) Table 1 summarises the results obtained for AXL, Mer and Tyro3-kinases binding assays; table 2 summarises the results obtained for the Met kinase binding assay.

[2] = target: T2, Axl (Homo sapiens, UniProt P30530); assay: LanthaScreen Eu kinase binding assay, Axl; conditions: Tracer 236
T2 construct: purchased Life Technologies
T2 sequence (P30530 26-894): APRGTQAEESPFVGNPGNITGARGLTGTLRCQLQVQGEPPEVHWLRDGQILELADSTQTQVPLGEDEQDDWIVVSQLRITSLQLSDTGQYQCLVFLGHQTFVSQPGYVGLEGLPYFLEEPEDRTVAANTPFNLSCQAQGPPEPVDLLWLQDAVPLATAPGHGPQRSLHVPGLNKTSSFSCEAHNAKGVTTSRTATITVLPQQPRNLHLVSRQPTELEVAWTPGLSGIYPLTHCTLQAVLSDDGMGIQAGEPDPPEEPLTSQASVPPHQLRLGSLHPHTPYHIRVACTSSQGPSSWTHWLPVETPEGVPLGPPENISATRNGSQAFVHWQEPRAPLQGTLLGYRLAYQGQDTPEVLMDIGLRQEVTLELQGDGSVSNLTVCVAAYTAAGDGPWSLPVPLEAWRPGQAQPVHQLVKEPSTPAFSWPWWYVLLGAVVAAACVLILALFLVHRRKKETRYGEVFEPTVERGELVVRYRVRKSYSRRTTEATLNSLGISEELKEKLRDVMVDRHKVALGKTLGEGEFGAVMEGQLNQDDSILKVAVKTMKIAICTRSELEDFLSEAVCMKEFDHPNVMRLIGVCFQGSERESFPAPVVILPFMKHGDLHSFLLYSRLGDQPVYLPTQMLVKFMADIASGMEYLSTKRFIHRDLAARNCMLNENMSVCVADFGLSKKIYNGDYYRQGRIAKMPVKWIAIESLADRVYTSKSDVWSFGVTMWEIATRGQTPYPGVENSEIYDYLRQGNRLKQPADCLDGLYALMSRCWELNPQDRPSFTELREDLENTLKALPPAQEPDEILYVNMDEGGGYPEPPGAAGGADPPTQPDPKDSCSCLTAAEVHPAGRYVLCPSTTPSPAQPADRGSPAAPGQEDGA
Protocol: as §1, §2, §3, §4, §5

[3] = target: T3, Mer (Homo sapiens, UniProt Q12866); assay: LanthaScreen Eu kinase binding assay, Mer; conditions: Tracer 236
T3 construct: purchased Life Technologies
T3 sequence (Q12866 21-999): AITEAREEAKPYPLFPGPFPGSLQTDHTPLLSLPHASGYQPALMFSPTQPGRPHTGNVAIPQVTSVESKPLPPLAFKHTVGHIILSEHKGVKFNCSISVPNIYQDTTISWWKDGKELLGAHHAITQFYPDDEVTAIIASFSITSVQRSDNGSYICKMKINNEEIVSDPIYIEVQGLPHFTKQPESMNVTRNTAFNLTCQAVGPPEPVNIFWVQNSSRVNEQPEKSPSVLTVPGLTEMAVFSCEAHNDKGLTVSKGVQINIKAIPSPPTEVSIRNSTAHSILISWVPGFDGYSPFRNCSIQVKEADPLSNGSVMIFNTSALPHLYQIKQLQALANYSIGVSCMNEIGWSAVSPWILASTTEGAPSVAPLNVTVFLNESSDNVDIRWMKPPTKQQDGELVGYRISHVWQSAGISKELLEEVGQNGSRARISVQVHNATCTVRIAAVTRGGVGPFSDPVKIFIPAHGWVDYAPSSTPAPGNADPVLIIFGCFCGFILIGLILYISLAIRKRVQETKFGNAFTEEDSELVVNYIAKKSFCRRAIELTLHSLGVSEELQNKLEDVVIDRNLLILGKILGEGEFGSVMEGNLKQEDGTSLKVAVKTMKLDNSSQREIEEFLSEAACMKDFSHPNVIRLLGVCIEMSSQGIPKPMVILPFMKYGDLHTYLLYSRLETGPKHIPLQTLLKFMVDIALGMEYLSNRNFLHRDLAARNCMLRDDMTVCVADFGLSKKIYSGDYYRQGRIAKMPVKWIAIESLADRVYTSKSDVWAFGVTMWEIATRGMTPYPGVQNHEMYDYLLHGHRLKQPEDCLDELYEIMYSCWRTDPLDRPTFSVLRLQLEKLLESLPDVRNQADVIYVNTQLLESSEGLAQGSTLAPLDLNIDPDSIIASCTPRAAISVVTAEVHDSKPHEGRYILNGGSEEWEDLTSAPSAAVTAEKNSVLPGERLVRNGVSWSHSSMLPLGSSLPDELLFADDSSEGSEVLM
Protocol: as §1, §2, §3, §4, §5

[4] = target: T4, TYRO3 (Homo sapiens, UniProt Q06418); assay: LanthaScreen Eu kinase binding assay, TYRO3; conditions: Tracer 236
T4 construct: purchased Life Technologies
T4 sequence (Q06418 41-890): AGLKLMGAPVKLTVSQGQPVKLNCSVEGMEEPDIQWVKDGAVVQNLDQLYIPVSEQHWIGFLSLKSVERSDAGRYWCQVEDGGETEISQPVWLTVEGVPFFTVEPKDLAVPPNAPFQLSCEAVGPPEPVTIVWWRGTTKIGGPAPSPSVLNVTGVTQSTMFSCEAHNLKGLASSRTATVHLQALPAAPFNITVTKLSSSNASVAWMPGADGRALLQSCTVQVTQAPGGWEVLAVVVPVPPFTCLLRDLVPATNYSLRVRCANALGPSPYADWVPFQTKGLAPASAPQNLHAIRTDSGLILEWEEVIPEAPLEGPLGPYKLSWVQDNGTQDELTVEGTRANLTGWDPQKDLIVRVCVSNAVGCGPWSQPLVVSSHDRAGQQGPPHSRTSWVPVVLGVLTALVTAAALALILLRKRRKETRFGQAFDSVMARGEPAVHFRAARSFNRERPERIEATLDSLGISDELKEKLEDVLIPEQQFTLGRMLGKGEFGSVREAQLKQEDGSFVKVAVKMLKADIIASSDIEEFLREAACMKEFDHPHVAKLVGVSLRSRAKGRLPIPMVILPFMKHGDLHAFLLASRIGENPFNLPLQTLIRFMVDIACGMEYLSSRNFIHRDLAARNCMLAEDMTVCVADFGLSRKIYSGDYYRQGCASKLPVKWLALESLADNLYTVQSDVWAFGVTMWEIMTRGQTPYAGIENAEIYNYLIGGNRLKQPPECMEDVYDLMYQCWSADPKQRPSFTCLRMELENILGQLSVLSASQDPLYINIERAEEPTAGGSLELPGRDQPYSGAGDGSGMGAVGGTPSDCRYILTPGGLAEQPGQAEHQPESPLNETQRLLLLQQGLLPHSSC
Protocol: as §1, §2, §3, §4, §5

T1 sequence (P08581 25-1390): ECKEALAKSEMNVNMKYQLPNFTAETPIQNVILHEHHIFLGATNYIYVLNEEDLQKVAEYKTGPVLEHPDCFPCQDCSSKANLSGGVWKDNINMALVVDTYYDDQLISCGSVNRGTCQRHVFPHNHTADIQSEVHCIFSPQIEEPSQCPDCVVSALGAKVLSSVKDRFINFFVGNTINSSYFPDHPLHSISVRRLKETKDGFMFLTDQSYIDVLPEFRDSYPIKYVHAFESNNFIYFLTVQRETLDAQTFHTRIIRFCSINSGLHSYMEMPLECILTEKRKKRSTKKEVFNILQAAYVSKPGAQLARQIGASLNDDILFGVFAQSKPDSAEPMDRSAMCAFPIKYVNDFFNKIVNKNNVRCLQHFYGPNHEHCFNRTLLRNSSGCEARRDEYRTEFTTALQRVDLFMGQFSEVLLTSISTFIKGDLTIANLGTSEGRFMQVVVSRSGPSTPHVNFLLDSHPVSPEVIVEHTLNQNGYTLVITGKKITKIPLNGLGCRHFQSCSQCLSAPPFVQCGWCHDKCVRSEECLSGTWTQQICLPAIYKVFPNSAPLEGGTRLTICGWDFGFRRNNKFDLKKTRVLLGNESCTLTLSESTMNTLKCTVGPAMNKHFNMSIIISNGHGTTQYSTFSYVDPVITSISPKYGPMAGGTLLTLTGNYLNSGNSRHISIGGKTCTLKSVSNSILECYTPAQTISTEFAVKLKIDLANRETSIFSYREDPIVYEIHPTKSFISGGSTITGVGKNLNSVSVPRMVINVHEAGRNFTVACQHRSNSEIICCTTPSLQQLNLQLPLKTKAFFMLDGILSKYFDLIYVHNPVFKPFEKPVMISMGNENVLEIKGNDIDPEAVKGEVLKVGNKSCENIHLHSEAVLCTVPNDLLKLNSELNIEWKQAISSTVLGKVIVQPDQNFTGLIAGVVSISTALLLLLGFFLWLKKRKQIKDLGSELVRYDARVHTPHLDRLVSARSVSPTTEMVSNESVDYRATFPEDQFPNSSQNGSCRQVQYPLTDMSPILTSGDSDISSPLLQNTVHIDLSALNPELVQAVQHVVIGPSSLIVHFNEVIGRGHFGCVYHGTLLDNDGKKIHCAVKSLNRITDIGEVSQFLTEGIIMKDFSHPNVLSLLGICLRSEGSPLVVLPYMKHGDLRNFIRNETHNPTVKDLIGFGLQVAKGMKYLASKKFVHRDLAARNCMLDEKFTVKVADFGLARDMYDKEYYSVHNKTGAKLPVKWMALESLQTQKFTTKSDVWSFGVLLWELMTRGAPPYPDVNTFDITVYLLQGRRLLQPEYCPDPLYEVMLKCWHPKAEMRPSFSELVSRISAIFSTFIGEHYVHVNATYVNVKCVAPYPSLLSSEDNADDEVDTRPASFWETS

Kd [1] | Kd [2] | Kd [3] | Kd [4] | SMILES
< 100 nM | 100 to 1000 nM | < 100 nM | 100 to 1000 nM | CCOc1cn(-c2ncc(Cl)cc2CN(C)C)nc1C(=O)Nc1ccc(Oc2ccnc3cc(OC)c(OC)cc23)cn1 [Compound 138]
< 100 nM | < 100 nM | < 100 nM | 100 to 1000 nM | CCOc1cn(-c2cnc(N)s2)nc1C(=O)Nc1ccc(Oc2ccnc3cc(OC)c(OC)cc23)cn1 [Compound 139]
< 100 nM | < 100 nM | < 100 nM | 100 to 1000 nM | CCOc1cn(-c2cnc(N)nc2)nc1C(=O)Nc1ccc(Oc2ccnc3cc(OC)c(OC)cc23)c(C)c1 [Compound 140]
< 100 nM | 100 to 1000 nM | < 100 nM | 100 to 1000 nM | CCOc1cn(-c2ncccc2CN(C)C)nc1C(=O)Nc1ccc(Oc2ccnc3cc(OC)c(OC)cc23)cn1 [Compound 142]
< 100 nM | < 100 nM | < 100 nM | < 100 nM | CCOc1cn(-c2ncc(N)nc2C)nc1C(=O)Nc1ccc(Oc2ccnc3cc(OC)c(OC)cc23)cn1 [Compound 143]
100 to 1000 nM | < 100 nM | < 100 nM | 100 to 1000 nM | CCOc1cn(-c2cnc(C(F)(F)F)nc2)nc1C(=O)Nc1ccc(Oc2ccnc3cc(OC)c(OC)cc23)cn1 [Compound 144]
≥ 1000 nM | ≥ 1000 nM | ≥ 1000 nM | ≥ 1000 nM | CCOc1cnn(-c2cnc(C(F)(F)F)nc2)c1C(=O)Nc1ccc(Oc2ccnc3cc(OC)c(OC)cc23)cn1 [Compound 145]
< 100 nM | < 100 nM | < 100 nM | < 100 nM | CCOc1cn(-c2cnc(N)nc2)nc1C(=O)Nc1ccc(Oc2ccnc3cc(OC)c(OC)cc23)c(Cl)c1 [Compound 146]
< 100 nM | < 100 nM | < 100 nM | < 100 nM | CCOc1cn(-c2cnccc2C#N)nc1C(=O)Nc1ccc(Oc2ccnc3cc(OC)c(OC)cc23)cn1 [Compound 147]
< 100 nM | < 100 nM | < 100 nM | < 100 nM | CCOc1cn(-c2cnc(N)nc2C)nc1C(=O)Nc1ccc(Oc2ccnc3cc(OC)c(OC)cc23)cn1 [Compound 150]
≥ 1000 nM | ≥ 1000 nM | < 100 nM | ≥ 1000 nM | CCOc1cn(-c2cnccn2)nc1C(=O)Nc1ccc(Oc2ccnc3cc(OC)c(OC)cc23)cc1F [Compound 152]
< 100 nM | < 100 nM | < 100 nM | < 100 nM | CCOc1cn(-c2cnc(N)nc2)nc1C(=O)Nc1ccc(Oc2ccnc3cc(OC)c(OC)cc23)cc1F [Compound 153]
≥ 1000 nM | < 100 nM | < 100 nM | ≥ 1000 nM | CCOc1cn(-c2cccnc2)nc1C(=O)Nc1ncc(Oc2ccnc3cc(OC)c(OC)cc23)cc1F [Compound 154]
< 100 nM | < 100 nM | < 100 nM | 100 to 1000 nM | CCOc1cn(-c2ncc(F)cc2C#N)nc1C(=O)Nc1ccc(Oc2ccnc3cc(OC)c(OC)cc23)cn1 [Compound 155]
< 100 nM | < 100 nM | < 100 nM | < 100 nM | CCOc1c(C(=O)Nc2ccc(Oc3ccnc4cc(OC)c(OC)cc34)cn2)nn(-c2cccnc2)c1C [Compound 156]
< 100 nM | < 100 nM | < 100 nM | ≥ 1000 nM | CCOc1cn(-c2cncc(C)n2)nc1C(=O)Nc1ccc(Oc2ccnc3cc(OC)c(OC)cc23)cn1 [Compound 157]
≥ 1000 nM | 100 to 1000 nM | ≥ 1000 nM | ≥ 1000 nM | CCOc1cn(-c2cncc(C#N)n2)nc1C(=O)Nc1ccc(Oc2ccnc3cc(OC)c(OC)cc23)cn1 [Compound 158]
≥ 1000 nM | ≥ 1000 nM | ≥ 1000 nM | ≥ 1000 nM | CCOc1cn(-c2cnc(C(F)(F)F)cn2)nc1C(=O)Nc1ccc(Oc2ccnc3cc(OC)c(OC)cc23)cn1 [Compound 159]
< 100 nM | < 100 nM | < 100 nM | ≥ 1000 nM | CCOc1cn(-c2cnccn2)nc1C(=O)Nc1cc(C)c(Oc2ccnc3cc(OC)c(OC)cc23)cn1 [Compound 163]
100 to 1000 nM | 100 to 1000 nM | < 100 nM | ≥ 1000 nM | CCOc1cn(-c2cncc(C(F)(F)F)n2)nc1C(=O)Nc1ccc(Oc2ccnc3cc(OC)c(OC)cc23)cn1 [Compound 164]
< 100 nM | < 100 nM | < 100 nM | < 100 nM | CCOc1cn(-c2cncnc2C(C)C)nc1C(=O)Nc1ccc(Oc2ccnc3cc(OC)c(OC)cc23)cn1 [Compound 166]
< 100 nM | < 100 nM | < 100 nM | 100 to 1000 nM | CCOc1cn(-c2cnc(F)cn2)nc1C(=O)Nc1ccc(Oc2ccnc3cc(OC)c(OC)cc23)cn1 [Compound 171]
